Data as given in US20210162028A1, “Methods for Inducing Intermittent Fasting and Modulating Autophagy” (The Hong Kong Polytechnic University, priority 2019, published 2021).
Entries after “also recorded” stand apart in the source; their conditions may differ.

What was measured:
Type in all cases: in vivo, mouse
hepatocyte = assay: Transmission electron microscopy of liver (hepatocytes); conditions: DIO C57BL/6J male mice on HFD, 3 weeks, Day 3
Source text: FIG. 47 illustrates the liver examined by transmission electron microscopy at Day 1, Day 3, Day 5 and Day 7 of the 7-day intermittent after N-ABD094-rhArg injection.
The presence of autophagosome in liver after treatment for 3 weeks were examined by TEM (FIGS. 62, 63 and 64).
The presence of autophagosome in liver after treatment for 3 weeks were examined by transmission electron microscopy (FIGS. 71 and 72).

[1] = Hepatic steatosis (oil Red O / H&E staining, liver triglyceride); conditions: DIO C57BL/6J male mice on HFD, 11 weeks after treatment
[2] = Insulin tolerance test (ITT); conditions: DIO C57BL/6J male mice on HFD, after 6 weeks
Source text: In terms of reversing insulin resistance on pre-existing obese mice, insulin tolerance test (ITT) was employed (FIG. 59).
In terms of reversing insulin resistance on pre-existing obese mice, insulin tolerance test (ITT) was employed (FIG. 68A).

[3] = Bodyweight of treated mice; conditions: DIO C57BL/6J male mice on HFD
[4] = Fat pad and organ mass at end of treatment; conditions: DIO C57BL/6J male mice on HFD
[5] = Daily food intake / 7-day intermittent fasting cycle in mice; conditions: DIO C57BL/6J male mice on HFD
Source text: One of the most noticeable effects of intermittent fasting is reduction of bodyweight. […] Specifically, C57BL/6J, which is the most commonly used mouse strain for polygenic obesity model, was used in the study. It is well-reported that C57BL/6J male mice feeding on a high-fat diet will have prominent weight gain, become obese and develop hyperinsulinemia, hyperglycemia, impaired glucose tolerance and insulin resistance [Gallou-Kabani et al., 2007, Obesity 15(8):1996-2005]. Obesity was induced in C57BL/6J male mice via feeding ad libitum a high-fat diet containing 60 kcal % fat (HFD; Research Diets, D12492) for 12-14 weeks starting from 5-week old. These mice are referred as diet-induced obese (DIO) mice. DIO mice were stratified according to bodyweight into 2 groups. […] Both groups of mice continued to feed ad libitum on the HFD throughout the treatment period. One group of age-matched C57BL/6J male mice feeding ad libitum on an ordinary rodent chow diet (CD; LabDiet, 50IF/6F) and injected with vehicle served as the lean control [CD (vehicle) group]. Food intake and bodyweight of mice were measured daily. […] DIO mice were injected with rhArg on Day 0, which was Day 7 of the previous cycle. Similarly, Day 7 of the cycle shown in FIG. 1B was Day 0 of the next cycle. […] Bodyweight gain is one of the biomarkers related to aging.
C57BL/6J male mice were fed a high-fat diet from 5-week old for 12 weeks. They were then stratified into 3 groups according to their bodyweight and individually caged: (i) one group of mice received i.p. injection of 600 U N-ABD094-rhArg (SEQ ID NO: 50) once a week [HFD (rhArg) group] and was fed ad libitum the HFD for 5 weeks; (ii) one group of mice received i.p. injection of saline once a week, and was fed a predetermined amount of HFD on each day to artificially create a 7-day intermittent fasting cycle that mimics the pattern of food intake of mice administered once a week with rhArg [HFD (artificial IF) group)]; (iii) one group of mice was injected with saline once a week and was fed ad libitum the HFD [HFD (vehicle) group].

[6] = Glucose tolerance test (GTT); conditions: DIO C57BL/6J male mice on HFD, after 7 weeks
[7] = rhArg weekly and/or 0.33 mg RA daily
[8] = rhArg weekly and/or 0.33 mg/day RA
[9] = rhArg once a week alone or 0.33 mg RA daily alone
[10] = 300 U/week rhArg and/or 300 mg/kg metformin
[11] = 300 U rhArg once a week and/or 300 mg/kg metformin daily

With `CC1=C(/C=C/C(C)=C/C=C/C(C)=C/C(=O)O)C(C)(C)CCC1` [RA, all-trans retinoic acid, reference compound] the “TEM of liver: autophagosomes” value (hepatocyte; [7]) was “autophagosome was rarely seen; also recorded: no autophagosome is observed”, the “TEM of liver: lipid droplets” value (hepatocyte; [7]) was “significant decrease in lipid droplet size” and the “Lipid in liver (H&E staining)” value ([1]; rhArg and/or RA) was “significant effect on diminishing lipid in liver”. The “Insulin sensitivity in ITT” value [2, 8] was “marginal effect on improving insulin sensitivity but not reach statistical significant”, the “Change in bodyweight under single treatment” value (“Change in bodyweight” for short) [3, 9] was “could only prevent further gain in bodyweight, but did not result in weight loss; also recorded: stable body weight without further increase” and the “Mass of organs including liver, pancreas and BAT” value [4, 9] was “can already reduce the mass of most organs”. The “Visceral and subcutaneous fat mass” value ([4]; rhArg once a week and/or 0.33 mg RA daily) was “did not reduce body fat”, the “Pattern of food intake (intermittent fasting cycle)” value ([5]; 200 U rhArg i.p. once a week and/or 0.33 mg RA daily) was “stable” and the “Total food intake per week, less than HFD (vehicle) group” value ([5]; 200 U rhArg i.p. once a week and/or 0.33 mg RA daily by gastric feeding, 10 weeks) was “slight, but insignificant decrease”. For the same compound, the “Glucose tolerance in GTT” value [6, 8] was “cannot relieve glucose intolerance”.

With `CN(C)C(=N)N=C(N)N` [metformin, reference compound] the “TEM of liver: autophagosomes” value (hepatocyte; [10]) was “no autophagosome is observed; also recorded: autophagosome was rarely seen”, the “TEM of liver: lipid droplets” value (hepatocyte; [10]) was “significant decrease in lipid droplet size” and the “Lipid in liver (H&E staining)” value ([1]; rhArg and/or metformin) was “slight effect of diminishing lipid in liver”. The “Insulin sensitivity in ITT” value [2, 10] was “cannot relieve insulin resistant”, the “Change in bodyweight” value ([3]; 300 U rhArg once a week alone or 300 mg/kg metformin daily alone) was “stable body weight without further increase in body mass” and the “Change in bodyweight” value ([3]; 300 U rhArg once a week alone or 300 mg/kg metformin daily alone, listed as Met) was “could only prevent further gain in bodyweight, but did not result in weight loss”. For the same compound, the “Mass of organs including liver, kidney and BAT” value [4, 11] was “cannot reduce the mass of most organs”, the “Visceral and subcutaneous fat mass” value [4, 11] was “did not reduce body fat” and the “Pattern of food intake (intermittent fasting cycle)” value ([5]; 300 U rhArg i.p. once a week and/or 300 mg/kg metformin daily) was “stable”. The “Total food intake per week, less than HFD (vehicle) group” value ([5]; 300 U rhArg i.p. once a week and/or 300 mg/kg metformin daily by gastric feeding, 9 weeks) was 13% and the “Glucose tolerance in GTT” value [6, 10] was “cannot relieve glucose intolerance”.
